Reference: US6984655B1, “Photodynamic therapy for selectively closing neovasa in eyeground tissue” (Meiji Seika Kaisha, Ltd., priority 2000, dated 2006)
One block for each compound: values may come before it.

Key:
[1] = system: vascular walls of retinal normal vascular vessels and choroidal neovascular vessels (CNV); experiment: infrared fluorescence fundus angiography of ICG (790 nm excitation) in monkeys having experimental CNV; format: in vivo, monkeys of the genus Macaca; conditions: for infrared fluorescence in CNV / infrared fluorescence in retinal normal vascular vessels: ICG 0.5 mg/kg iv
From the text: In these experiments, the time-dependent changes in the concentrations of ICG having distributed and remaining in the vascular walls of the retinal normal vascular vessels and in the vascular walls of the choroidal neovascular vessels (CNV) in the ocular fundus of the monkeys were examined by a process wherein a beam of laser light containing a light of 790 nm-wavelength (as emitted from a semiconductor type laser generator) was used as an excitation light, and wherein the changes in the intensity of the infrared fluorescence emitted from the ICG as excited within said vascular walls were continuously recorded by photographs by means of an infrared light fundus camera apparatus (of modified TCR 50-IA type, manufactured by Topcon Co., Japan) for the infrared fluorescence fundus angiography for diagnosing the ocular fundus, and wherein the photographed images of the fundus were observed visually.
In the same manner as in the above Test Example 1, the neovasculature lesions comprising the experimental choroidal neovascular vessels (CNV) were produced in the ocular fundi of monkeys of the genus Macaca, according to the modified Ryan's method.
An aqueous solution of ICG dissolved in distilled water for the injections at a concentration of 5.0 mg/ml of ICG was intravenously injected at a dose of ICG of 0.5 mg/kg at a vein in the lower limbs of the monkeys having the neovasculature lesions in the retina of the eye.
Immediately after the time of the intravenous injection of ICG, the ocular fundi of the monkeys were continuously observed under irradiation of the beam of laser light containing a light of 790 nm-wavelength by means of an infrared light camera apparatus (of a modified TCR 50-IA type, manufactured by Topcon Co.) for infrared fluorescence fundus the angiography for diagnosing the ocular fundus.
To these test monkeys was intravenously injected ICG at a dose of 1 mg/kg in the same way as in Test Example 3. Immediately after the time of the intravenous injection of ICG, the ocular fundi of the monkeys were continuously observed by means of an infrared light fundus camera apparatus (of modified TCR 50 type, manufactured by Topcon Co., Ltd.) for the infrared fluorescence fundus angiography for diagnosing the ocular fundus. The observation with the fundus camera was made under irradiation of the ocular fundi with the laser light containing a light of 790 nm-wavelength. There was recorded the time point at which the infrared fluorescence of ICG was eliminated entirely from the retinal normal vascular vessels.

[2] = system: vascular walls of retinal normal vascular vessels and choroidal neovascular vessels (CNV); experiment: infrared fluorescence fundus angiography after co-injection of ICG and NPe6 (Test Example 5); format: in vivo, monkeys of the genus Macaca; conditions: ICG 0.5 mg/kg co-injected with NPe6 0.5 mg/kg
From the text: The 664 nm-laser light as irradiated was irradiated at an irradiance of 0.68 W/cm^2 for 300 second so that the fluence was of 204 J/cm^2.

[3] = system: experimental choroidal neovascular vessels (CNV); experiment: PDT with NPe6 timed by prior ICG angiography (Test Example 4)
Protocol: To these test monkeys was intravenously injected ICG at a dose of 1 mg/kg in the same way as in Test Example 3. Immediately after the time of the intravenous injection of ICG, the ocular fundi of the monkeys were continuously observed by means of an infrared light fundus camera apparatus (of modified TCR 50 type, manufactured by Topcon Co., Ltd.) for the infrared fluorescence fundus angiography for diagnosing the ocular fundus. The observation with the fundus camera was made under irradiation of the ocular fundi with the laser light containing a light of 790 nm-wavelength. There was recorded the time point at which the infrared fluorescence of ICG was eliminated entirely from the retinal normal vascular vessels. The time-gap which was extended between the aforesaid time point as recorded for the entire elimination of the infrared fluorescence of IGC and the time of the intravenous injection of ICG was calculated in a unit of “minutes” or “second”, whereby it was estimated that said time-gap was 30 minutes. • (b) Time was allowed to pass until the infrared fluorescence of ICG was eliminated entirely from the neovasculature lesions in the ocular fundi of the test monkeys. […] The 664 nm-laser light as irradiated was irradiated at an irradiance of 0.57 W/cm2 for 180 seconds so that the fluence was of 102.6 J/cm^2. […]

[4] = system: experimental choroidal neovascular vessels (CNV); conditions: optical microscope, pathological examination
From the text: In the experiments of this Test Example 2, there were used 31 neovasculature lesions chosen from among the neovasculature lesions which comprised the experimental choroidal neovascular vessels (CNV) as produced in the ocular fundi of the monkeys of the genus Macaca by the modified Ryan's method set out in the Test Example 1 above.
The 664 nm-laser light was irradiated for 300 seconds at a fluence of 204 J/cm^2.
The laser light was irradiated for 60 to 300 seconds at different fluences.
The 664 nm-laser light was irradiated at different fluences for 60 seconds or for 10 seconds. […]
After the treatment with the irradiation of 664 nm-laser light was terminated, the test monkeys having the neovasculature lesions, either treated or untreated, were fed for 1 week under routine feeding conditions. After the feeding for one week, the effects of the above treatments were judged by a fluorescence fundus angiography with fluorescein and by a fluorescence fundus angiography with indocyanine green (ICG). […] For the fluorescence fundus angiography with ICG, the ocular fundi of the monkeys were observed and diagnosed by means of SLO or by means of an infrared light fundus camera apparatus for the infrared ocular fundus angiography, after the intravenous injection of ICG. […]

[5] = system: ocular fundus tissue with choroidal neovascular vessels (CNV); experiment: fluorescence microscopy of cross-section samples of enucleated eyeballs; format: in vivo, monkeys of the genus Macaca; conditions: 20 mg/kg iv, eyeballs enucleated 65 to 70 minutes after injection, excitation 380 to 420 nm
Protocol: These cut pieces of the eyeballs were frozen in a bath of liquid nitrogen. Cross-section samples each having a thickness of 5 μm were prepared from the ocular fundus tissue region of the frozen pieces of the eyeballs.

[6] = system: vascular walls of retinal normal vascular vessels and choroidal neovascular vessels (CNV); experiment: fluorescence fundus angiography of NPe6 red fluorescence (488 nm excitation) in monkeys having experimental CNV; format: in vivo, monkeys of the genus Macaca; conditions: for time point at which red fluorescence was substantially entirely eliminated from retinal normal vascular vessels while CNV lesions continued to emit: Test Example 2
From the text: The detailed procedures of the above experiments are as follows. Thus, a beam of a laser light of 647 nm wavelenght as emitted from a krypton laser generator [Coherent Medical Laser generator, manufactured by Novua Omni Co.; having an output of 500 to 900 mW] was irradiated as a laser-irradiating spot of a diameter of 50 μm onto the ocular fundi of 8 mature monkeys of the genus Macaca (of body weights of 3.5 kg to 6.0 kg) for 0.1 seconds, according to a modification of the Ryan's method [Arch. Ophthalmol., vol 100; pp. 1804–1809 (1982)]. It is said that the resulting damage in the Bruch's membrane, which were incurred by the irradiation of the 647 nm laser light, is very effective for the incidence of ocular neovascular vessels. Thereby, there were induced the experimental choroidal neovascular vessels (abbreviated as CNV). The induced CNV are the neovascular vessels as branched from the choroidal normal vascular vessels in the ocular fundus. Such CNV have infiltrated in the subretinal space, namely the space between the sensory retina and choroids, to involve the occurrence of exudation, bleeding and retinal detachment. The formation of the neovasculature lesions comprising the CNV was confirmed by a process which comprised intravenously injecting fluorescein or indocyanine green to the so treated monkeys and subsequently carrying out the diagnosis method according to a fluorescence fundus angiography of the ocular fundus.
In the course of said irradiation of 488 nm laser light beam for 10 minutes, the images of the red fluorescence as emitted in the ocular fundus were recorded by photography on a video tape by means of a high-sensitivity television fundus camera apparatus. Thereafter, at intervals of 10 minutes, a beam of 488 nm laser light was repeatedly irradiated to the ocular fundus each for about one minute. At each of the irradiations of the 488 nm laser light beam, the images of the red fluorescence emitted from the vascular vessels of the ocular fundus were recorded on the video tape. […] The images of the fluorescence emitted from the ocular fundus vascular vessels were then reproduced from the recording video tape for the purpose of observation.
During this 10 minutes-irradiation of the 488 nm-laser light to the ocular fundi, the images of the red fluorescence emitted from the ocular fundi were recorded by photography on a video tape by means of a high-sensitivity television fundus camera.
During this irradiation of the 488 nm-laser light, the images of the red fluorescences emitted from the retinal normal vascular vessels and from the choroidal neovascular vessels were observed by an apparatus for the fluorescence ocular fundus angiography of the ocular fundus (namely, an infrared light fundus camera).

[7] = system: CD-1 (male) mice; experiment: acute toxicity test (LD50); format: in vivo
[8] = 20 minutes after administration
[9] = about 7 to 8 minutes after injection
[10] = 0.5 mg/kg iv, 20 minutes after injection
[11] = 1.0 mg/kg iv, 30 minutes after injection
[12] = 20 mg/kg iv, 7.5 minutes after injection
[13] = 20 mg/kg iv, 20 minutes after injection
[14] = 20 mg/kg iv, 60 minutes after injection

- infrared fluorescence in retinal normal vascular vessels [1, 8]: had decreased
- infrared fluorescence in CNV [1, 9]: a slight but appreciable intensity
- time-gap between intravenous injection and entire elimination of infrared fluorescence from retinal normal vascular vessels ([1]; ICG 1 mg/kg iv): 30 min
- infrared fluorescence of ICG in retinal normal vascular vessels ([2]; 20 minutes after injection): decreased to a poor intensity
SMILES: CC1(C)C(/C=C/C=C/C=C/C=C2\N(CCCCS(=O)(=O)O)c3ccc4ccccc4c3C2(C)C)=[N+](CCCCS(=O)(=O)[O-])c2ccc3ccccc3c21 [ICG, indocyanine green]
- infrared fluorescence in CNV [1, 8]: increased to a prominent and appreciable intensity
- infrared fluorescence in retinal normal vascular vessels [1, 9]: observed at a prominent and appreciable intensity
- infrared fluorescence of ICG in vascular walls of CNV ([2]; 20 minutes after injection): retained at a prominent and apreciable intensity
- infrared fluorescence of ICG in retinal normal vascular vessels [2, 9]: observed at a prominent and appreciable intensity

SMILES: C=Cc1c(C)c2cc3nc(c(CC(=O)N[C@@H](CC(=O)[O-])C(=O)[O-])c4[nH]c(cc5nc(cc1[nH]2)C(C)=C5CC)c(C)c4C(=O)[O-])[C@@H](CCC(=O)[O-])[C@@H]3C.[Na+].[Na+].[Na+].[Na+] [NPe6, mono-L-aspartyl chlorin e6 tetra-sodium salt]
- number of treated neovasculature lesions whose CNV were successfully occluded ([3]; NPe6 1 mg/kg iv after ICG cleared, irradiation started 30 min, 0.57 W/cm2, 180 s, 102.6 J/cm^2, 3 lesions treated, judged after one week): 3
- state of adjacent retinal normal vascular vessels, retinal parenchymal tissue and choroidal normal vascular vessels ([3]; NPe6 1 mg/kg iv, 664 nm-laser 102.6 J/cm^2, judged after one week): could remain intact
- state of retinal and choroidal normal vascular vessels adjacent to the occluded CNV [4]: remaining intact or nearly intact
- red fluorescence at CNV in cross-section samples [5]: observed confirmably at a significant intensity
- red fluorescence at retinal normal vascular vessels in cross-section samples [5]: only a very slight degree of the red fluorescence
- red fluorescence in cross-section samples of retinal parenchymal region [5]: almost not observable
- red fluorescence in CNV [6, 10]: confirmably observed at a slight but appreciable intensity
- red fluorescence in retinal normal vascular vessels [6, 10]: substantially entirely been eliminated and disappeared
- time point at which red fluorescence was substantially entirely eliminated from retinal normal vascular vessels while CNV lesions continued to emit ([6]; 0.5 mg/kg iv): 20 min
- red fluorescence in CNV [6, 11]: confirmed at a significant and appreciable intensity
- red fluorescence in retinal normal vascular vessels [6, 11]: substantially entirely been eliminated
- time point at which red fluorescence was substantially entirely eliminated from retinal normal vascular vessels while CNV lesions continued to emit ([6]; 1 mg/kg iv): 30 min
- time point at which red fluorescence was substantially entirely eliminated from retinal normal vascular vessels while CNV lesions continued to emit ([6]; 2 mg/kg iv): 60 min
- time point at which red fluorescence was substantially entirely eliminated from retinal normal vascular vessels while CNV lesions continued to emit ([6]; 10 mg/kg iv): 60 min
- red fluorescence in vascular walls of CNV [6, 12]: observable slightly but detectable at its weak intensity
- red fluorescence in vascular walls of retinal normal vascular vessels [6, 12]: appreciably observable at its prominent intensity
- red fluorescence in CNV [6, 13]: remain at a higher and prominently observable intensity
- red fluorescence in retinal normal vascular vessels [6, 13]: decreased to a lower and hardly detectable intensity
- red fluorescence in CNV [6, 14]: observed at a high and prominent intensity
- red fluorescence in retinal normal vascular vessels [6, 14]: never observable
- time of peak NPe6 concentration in vascular walls of CNV after intravenous injection ([6]; monkeys with experimental CNV): about 20 minutes
- permeation into normal parenchymal tissue of the ocular retina ([6]; monkeys, intravenous): never permeate
- LD50 [7]: 164 mg/kg
